Test results from PMC10272112 (Nature Communications, 2023).
Like-named read-outs stand apart in the source and are kept apart here. Values belong to the compound of their own block, whether it stands above or below them.

What was measured:
HDAC8 = biological target: T1, HDAC8 (Homo sapiens, UniProt Q9BY41); assay: HDAC-Glo assay; type: biochemical; set-up: purchased BPS Bioscience 50008; conditions: read-out: log EC50 from dose-dependent HDAC inhibition curves (converted)
T1 sequence (Q9BY41 1-377): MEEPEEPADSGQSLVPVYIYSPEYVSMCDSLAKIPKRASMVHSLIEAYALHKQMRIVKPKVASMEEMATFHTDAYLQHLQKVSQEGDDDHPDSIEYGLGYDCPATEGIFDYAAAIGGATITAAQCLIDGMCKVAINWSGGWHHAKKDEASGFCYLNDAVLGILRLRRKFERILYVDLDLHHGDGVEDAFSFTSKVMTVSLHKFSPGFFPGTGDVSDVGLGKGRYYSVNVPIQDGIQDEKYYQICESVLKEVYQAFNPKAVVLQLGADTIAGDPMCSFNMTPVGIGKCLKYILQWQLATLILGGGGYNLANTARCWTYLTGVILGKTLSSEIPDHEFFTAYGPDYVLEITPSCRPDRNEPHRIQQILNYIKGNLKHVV
Experimental: To validate the inhibition of HDACs by LA and LM and elaborate on the structure-activity relationship (SAR) of enantiomers as well as oxidized versus reduced forms of the molecules, we performed enzyme activity assays for recombinant HDAC1,2,3,6,8 as well as FRET-based binding assay for recombinant HDAC10.
The experiments were performed according to ref. [48]. […] Drug dosing was performed with a D300e Digital Dispenser (Tecan). HDACs (7 ng/mL for HDAC1, 25 ng/mL for HDAC2, 200 ng/mL for HDAC3/Ncor2 complex, 100 ng/mL for HDAC6, 200 ng/mL for HDAC8) and inhibitors were incubated together at room temperature (RT) for 30 min. After the addition of the HDAC-Glo™ I/II reagent, plates were shaken (800 rpm orbital shaker, 30 s), centrifuged (300 g, 1 min), and incubated at RT for 30 min. Luminescence was detected with a CLARIOstar (BMG Labtech) plate reader.

DDX3X AcK118 = assay: DDX3X acetylation detection by western blot, CBP-HA transfected HEK293T; type: cell-based
Experimental: 0.2 × 10^6 HEK293T (ATCC: CRL-3216) cells were transfected with pcDNA 3.1-HA CBP plasmids (1 μg/well for the 6-well plate) by FuGENE. After 2 days, cells were treated with ACY-738, lipoic acid, and lipoamide for 7 h, then were washed by ice-cold PBS and lysed in Triton lysis buffer (50 mM Tris, pH 8.0, 150 mM NaCl, 1 mM EDTA, 0.1% TritonX-100 and complete EDTA-free protease inhibitors (Roche)) for analysis. To detect protein acetylation, 0.2 μM Trichostatin A and 5 mM nicotinamide were added to PBS for washing, and 10 μM trichostatin A, 10 mM nicotinamide, and 50 mM sodium butyrate were added to Triton lysis buffer.

HMG20B = assay: Chemoproteomic competition pulldown assay (co-competed CoREST partner); type: binding
Experimental: (§1) To identify proteins directly bound by lipoic acid, we employed a chemoproteomic competition assay. Briefly, (R/S)-LA was immobilized on sepharose beads via an amidation reaction to form an affinity matrix (abbreviated as iL; Fig. 1a). This affinity matrix can be incubated with cell lysate to pull down potential LA or LM target proteins and identify these targets via bottom-up proteomics. In a competition assay, free LA or LM were incubated with lysate at different concentrations before pulling down and quantifying target proteins. […] (Fig. 1b, see “Methods” for details). […] The lysate buffer used in this assay contains 1 mM DTT to mimic the intracellular reductive milieu and to reduce lipoic acid and LM. […] Additional competition assays performed in lung adenocarcinoma cell A549 lysate also identified HDAC1, HDAC2, and HDAC6 as targets (Supplementary Fig. 1b). Amongst the three cell lines tested, HDACs were the only confidently identified targets across the 1500–3000 proteins quantified in these assays. […] We validated the results by analogous pulldown competition assays using two other affinity matrices prepared via the immobilization of either the HDAC inhibitor Quisinostat (iQ) and an analog of the class IIa HDAC inhibitor Bürli’s 31[14] (iC)[12]. We have previously shown that these affinity matrices specifically bind to the active sites of HDACs and have used them for HDACi selectivity profiling. Indeed, binding of (R/S)-LA and (R/S)-LM to HDAC1, HDAC2, HDAC3, HDAC6, and, to a lesser extent, HDAC8 was confirmed in these assays (Supplementary Fig. 1c, d). No binding to class IIa HDACs or the recently discovered common HDAC inhibitor off-target MBLAC2 was observed (Supplementary Fig. 1e)[12]. […] This observation might reflect electrostatic repulsion between the HDAC10 active site gate-keeper glutamic acid residues[15],[16] and the terminal carboxylic acid of LA.
(§2) To assess the degree of protein depletion from lysates by the affinity matrix, a second pulldown (PDPD) with fresh beads was performed using the unbound protein fraction from the vehicle control flow through. The beads were washed (1 × 1 mL of lysis buffer without inhibitors and only 0.4% Igepal, 2 × 2 mL of lysis buffer without inhibitors and only 0.2% Igepal), and captured proteins were denatured with 8 M urea buffer, alkylated with 55 mM chloroacetamide and digested with Trypsin according to standard procedures. The resulting peptides were desalted on a C18 filter plate (Sep-Pak® tC18 µElution Plate, Waters), vacuum dried, and stored at −20 °C until LC–MSMS measurement.
For the competition assays, relative binding was calculated based on the protein intensity ratio to the DMSO control for every single inhibitor concentration. EC50 values were derived from a four-parameter log-logistic regression with variable slope (constrain: bottom > 0). The obtained EC50 values were multiplied with a protein-dependent correction factor (cf), resulting in the apparent Kd value (Kd^app). The correction factor is determined by calculating the ratio of the protein intensity of two consecutive pulldowns of the vehicle control sample[13]. Targets of the inhibitors were annotated manually according to published procedures[12],[46],[47]. […] Additionally, the number of unique peptides and MSMS counts per condition were taken into account. Positive target binding across several independent experiments performed with different cell lysates further substantiated our confidence for a true positive drug-target binding event.

[1] = biological target: HDACs (HDAC1, HDAC2, HDAC6); assay: Chemoproteomic competition pulldown assay (HDAC panel); type: binding
Experimental: as §1
as §2, with “The resulting peptides were desalted on a C18 filter plate (Sep-Pak® tC18 µElution Plate, Waters), vacuum dried, and stored at −20 °C until LC–MSMS measurement.” left out
For the competition assays, relative binding was calculated based on the protein intensity ratio to the DMSO control for every single inhibitor concentration. […] The correction factor is determined by calculating the ratio of the protein intensity of two consecutive pulldowns of the vehicle control sample[13]. […]

[2] = iL, SW620 lysate, 1 mM DTT, range over HDAC1, HDAC2, HDAC6, read-out: affinities (Kd app)

EC50 (HDAC8): 7.73 µM
relative binding vs DMSO (HMG20B; iL, MV4-11 lysate, log10 M -3.52288): 0.0242
relative binding vs DMSO (HMG20B; iL, MV4-11 lysate, log10 M -4): 0.0521
relative binding vs DMSO (HMG20B; iL, MV4-11 lysate, log10 M -4.52288): 0.1443
relative binding vs DMSO (HMG20B; iL, MV4-11 lysate, log10 M -5): 0.4724
relative binding vs DMSO (HMG20B; iL, MV4-11 lysate, log10 M -5.52288): 0.6292
relative binding vs DMSO (HMG20B; iL, MV4-11 lysate, log10 M -6): 0.8935
relative binding vs DMSO (HMG20B; iL, MV4-11 lysate, log10 M -6.52288): 0.8513
relative binding vs DMSO (HMG20B; iL, MV4-11 lysate, log10 M -7): 1.055
Kd [1, 2]: 3 to 33 µM
SMILES: NC(=O)CCCCC1CCSS1 (racemic) [(R/S)-LM, (R/S)-lipoamide]
DDX3X AcK118 acetylation level relative to control (DDX3X AcK118; 1 mM): 2.4 fold
DDX3X AcK118 acetylation level relative to control (DDX3X AcK118; .5 (mM)): 2.1 fold

SMILES: O=C(O)CCCCC1CCSS1 (racemic) [(R/S)-LA, (R/S)-lipoic acid]
EC50 (HDAC8): 22.3 µM
DDX3X AcK118 acetylation level relative to control (DDX3X AcK118; 1 mM): 2.4 fold
DDX3X AcK118 acetylation level relative to control (DDX3X AcK118; .5 (mM)): 1.8 fold
relative binding vs DMSO (HMG20B; iL, A549 lysate, log10 M -4): 0.09481
relative binding vs DMSO (HMG20B; iL, A549 lysate, log10 M -4.52288): 0
relative binding vs DMSO (HMG20B; iL, A549 lysate, log10 M -5): 0
relative binding vs DMSO (HMG20B; iL, A549 lysate, log10 M -5.52288): 0
relative binding vs DMSO (HMG20B; iL, A549 lysate, log10 M -6): 0.5309
relative binding vs DMSO (HMG20B; iL, A549 lysate, log10 M -6.52288): 1.1771
relative binding vs DMSO (HMG20B; iL, A549 lysate, log10 M -7.52288): 1.54
relative binding vs DMSO (HMG20B; iL, A549 lysate, log10 M -8): 1.531
relative binding vs DMSO (HMG20B; iL, A549 lysate, log10 M -8.52288): 0.9986
relative binding vs DMSO (HMG20B; iQ, SW620 lysate, log10 M -3.52288): 0.2338
relative binding vs DMSO (HMG20B; iQ, SW620 lysate, log10 M -4): 0.0385
relative binding vs DMSO (HMG20B; iQ, SW620 lysate, log10 M -4.52288): 0.4714
relative binding vs DMSO (HMG20B; iQ, SW620 lysate, log10 M -5): 0.5482
relative binding vs DMSO (HMG20B; iQ, SW620 lysate, log10 M -5.52288): 0.8626
relative binding vs DMSO (HMG20B; iQ, SW620 lysate, log10 M -6): 0.8649
relative binding vs DMSO (HMG20B; iQ, SW620 lysate, log10 M -6.52288): 1.158
relative binding vs DMSO (HMG20B; iQ, SW620 lysate, log10 M -7): 1.067
Kd [1, 2]: 3 to 33 µM
EC50 ([1]; peer review response, read-out: EC50 in chemoproteomic competition assays): 5 to 30 µM
Kd ([1]; peer review response, read-out: potency of target binding (Kd)): 5 to 30 µM
